Consider three molecules from patent publication US12357570B2, “Chemoembolization agents” (BRUIN BIOSCIENCES, INC., priority 2017, dated 2025).

Entries after “also recorded” stand apart in the source; their conditions may differ.

A short description of data set [1]: Loading of non-encapsulated drug on DC Beads (residual unloaded drug by HPLC). As to conditions: room temperature. It counts as physicochemical. On the procedure: A drug-loading solution was prepared by adding sterile water to a vial of doxorubicin hydrochloride powder (Pharmacia & Upjohn, Kalamazoo, MI) to produce a solution of the desired concentration (for the loading experiment 25 mg Doxorubicin salt was dissolved in 5 mL water. 0.043 mmol/5 mL=8.6 mM solution). 1 mL volume of beads was aspirated via syringe, purged of as much liquid as possible, then an aqueous solution Doxorubicin (5 mL, 5 mg/mL concentration) aspirated and mixed with beads. The mixture was dispensed into a sealed vial and left to load at room temperature without agitation and left for a time until the red coloration in the solution had diminished and the beads had taken on a red color. This time was dependent on drug loading solution concentration and bead size.
The extent of drug loading was calculated from the residual unloaded drug content determined by UV/visible HPLC with DAD detector at 220 and 254 nm (Agilent 1100 Series). Estimated uptake of Doxorubicin was approximately 90% loading after 25 hours, and approximately 99% loading after 91 hours.
Sunitinib was loaded to DC Beads® using a procedure similar to that for Example 6. Estimated uptake of Sunitinib was approximately 99% after 6 hours and >99.8% after 24 hours at room temperature.

For data set [2] the following is noted: after a 24 hour period; previous observations; cited from earlier work.
Data set [3] is described as follows: Loading of liposome-encapsulated drug on DC Beads (supernatant HPLC/MS). The note with it: for loading on DC Beads: cationic liposomes DOTAP/DOPC; for amount loaded: start of elution, liposomal drug on DC Beads. It counts as physicochemical. On the procedure:
(§1) This was accomplished via a two-step process: 1) Sorafenib was made water-soluble by encapsulation into an encapsulating agent that is positively charged on its outer surface (cationic liposomes) and 2) association of a plurality of the loaded encapsulating agents so obtained onto microspheres (DC Beads®). In order to accomplish this, Sorafenib para-toluene sulfonate salt (9.1 mg), DOTAP (1,2-dioleoyl-3-trimethylammonium-propane chloride salt, 100 mg) and DOPC (1,2-dioleoyl-sn-glycero-3-phosphocholine, 101.1 mg) were dissolved in ethanol (0.5 mL) and this solution was added dropwise to a 10% trehalose solution (9 mL) under stirring. The resulting viscous emulsion was stirred at room temperature for 5 minutes and then filtered through a manual liposomal extruder using a 200 nm polycarbonate membrane. The resulting unilamellar liposomal solution was lyophilized overnight to yield a white solid, which was reconstituted in deionized water (1.82 mL) to yield a final Sorafenib concentration of 5 mg/mL. DC Beads® (2 mL, having about 200,000 beads with an average bead diameter of about 100-300 microns as measured by light scattering) were drained of as much liquid as possible and treated with the liposomal solution. The concentration of Sorafenib in the supernatant was measured over time by HPLC/MS. After approximately 46 hours, equilibrium was reached and loading of Sorafenib appeared to be approximately 52%. It is possible that saturation was reached and that more beads are needed to increase loading. For elution experiments, the liposomal solution with the DC Beads® was passed through a cotton filter, leaving the DC Beads® on the filter. PBS (1.0 M, pH 7.4) warmed to 37° C. was passed over the beads at 4 mL/min for 60 minutes. Four 40 mL vials were collected and analyzed by HPLC/MS/MS to determine the concentration of Sorafenib in each sample. Ten 3 mL vials were collected and analyzed by HPLC/MS/MS to establish the drug elution kinetics for Sorafenib.
This was accomplished via a two-step process: 1) Regorafenib (4.7229 mg) was made water-soluble by encapsulation into an encapsulating agent that is positively charged on its outer surface (cationic liposomes) and 2) association of a plurality of the loaded encapsulating agents so obtained onto microspheres. In short, Regorafenib (6.9 mg), DOTAP (1,2-dioleoyl-3-trimethylammonium-propane chloride salt, 100 mg) and DOPC (1,2-dioleoyl-sn-glycero-3-phosphocholine, 101.1 mg) were dissolved in ethanol (0.5 mL) and this solution was added dropwise to a 10% trehalose solution (9 mL) under stirring. […] The concentration of Regorafenib in the supernatant was measured over time by HPLC/MS. […] Four 40 mL vials were collected and analyzed by HPLC/MS/MS to determine the concentration of […] in each sample.

Data set [4] can be described thus: Elution of liposome-encapsulated drug from DC Beads with PBS pH 7.4 at 37° C. The note with it: for Remaining drug to be eluted: after Fraction I (solvent-final). In kind it is physicochemical. On the procedure:
as §1, with “PBS (1.0 M, pH 7.4) warmed to 37° C. was passed over the beads at 4 mL/min for 60 minutes.” left out
This was accomplished via a two-step process: 1) Regorafenib (4.7229 mg) was made water-soluble by encapsulation into an encapsulating agent that is positively charged on its outer surface (cationic liposomes) and 2) association of a plurality of the loaded encapsulating agents so obtained onto microspheres. In short, Regorafenib (6.9 mg), DOTAP (1,2-dioleoyl-3-trimethylammonium-propane chloride salt, 100 mg) and DOPC (1,2-dioleoyl-sn-glycero-3-phosphocholine, 101.1 mg) were dissolved in ethanol (0.5 mL) and this solution was added dropwise to a 10% trehalose solution (9 mL) under stirring. The resulting viscous emulsion was stirred at room temperature for 5 minutes and then filtered through a manual liposomal extruder using a 200 nm polycarbonate membrane. The resulting unilamellar liposomal solution was lyophilized overnight to yield a white solid, which was reconstituted in deionized water (1.8 mL) to yield a final Regorafenib concentration of 5 mg/mL. DC Beads® (2 mL) were drained of as much liquid as possible and treated with the liposomal solution. The concentration of Regorafenib in the supernatant was measured over time by HPLC/MS. After approximately 92 hours, equilibrium was reached and loading of Regorafenib appeared to be approximately 25%. For elution experiments, the liposomal solution with the DC Beads® was passed through a cotton filter, leaving the DC Beads® on the filter. […] Four 40 mL vials were collected and analyzed by HPLC/MS/MS to determine the concentration of […] in each sample.

The conditions of data set [5]: cited from earlier work.
The conditions of data set [6]: human, 400 mg twice daily, cited from earlier work.
The mark [7] stands for this setting: Fraction I (solvent-final), time 320 minutes.

With `COc1cccc2c1C(=O)c1c(O)c3c(c(O)c1C2=O)C[C@@](O)(C(=O)CO)C[C@@H]3O[C@H]1C[C@H](N)[C@H](O)[C@H](C)O1` [Doxorubicin], the entries for the “Estimated uptake (loading) on DC Beads” value in data set [1] (after 25 hours) and in data set [1] (after 91 hours) were “approximately 90%” and “approximately 99%”, respectively. The “fraction of drug eluted” value in data set [2] is reported as “about 4%”.
As to `CNC(=O)c1cc(Oc2ccc(NC(=O)Nc3ccc(Cl)c(C(F)(F)F)c3)c(F)c2)ccn1` [Regorafenib], the “loading on DC Beads” value in data set [3] (equilibrium after approximately 92 hours) is “approximately 25%”. The amount loaded in data set [3] was 2.1931 mg. Moreover, the “% eluted” value in data set [4] (Fraction B, time 40 minutes) came out at 68.3963%; in data set [4] (Fraction C, time 80 minutes), 2.3255%; in data set [4] (Fraction D, time 120 minutes), 0.0109%; in data set [4] (Fraction E, time 160 minutes), 0.00286%; in data set [4] (Fraction F, time 200 minutes), 0.0017%; in data set [4] (Fraction G, time 240 minutes), 0.0017%. Further, the “% eluted” value in data set [4] (Fraction H, time 280 minutes) is listed as 0.0049%; in data set [4] (setting [7]), 3.5384%. The Cumulative elution % in data set [4] (Fraction B, time 40 minutes) is 68.3963%; in data set [4] (Fraction C, time 80 minutes), 70.7218%; in data set [4] (Fraction D, time 120 minutes) it was 70.7327%; in data set [4] (Fraction E, time 160 minutes) it was 70.7356%; in data set [4] (Fraction F, time 200 minutes), 70.7373%; in data set [4] (Fraction G, time 240 minutes) it was 70.739%. For the same molecule, the Cumulative elution % came out at 70.7439% in data set [4] (Fraction H, time 280 minutes) and 74.2823% in data set [4] (setting [7]). Moreover, the amount eluted in data set [4] (Fraction B, time 40 minutes) was 1.5 mg; in data set [4] (Fraction C, time 80 minutes), 0.051 mg; in data set [4] (Fraction D, time 120 minutes), 0.00024 mg; in data set [4] (Fraction E, time 160 minutes) it was 0.0000628 mg; in data set [4] (Fraction F, time 200 minutes), 0.0000372 mg; in data set [4] (Fraction G, time 240 minutes) it was 0.0000364 mg. Moreover, the amount eluted turned out to be 0.000108 mg in data set [4] (Fraction H, time 280 minutes) and 0.0776 mg in data set [4] (setting [7]). Further, the “Remaining drug to be eluted” value in data set [4] stood at 0.5723 mg. For the same molecule, in data set [5], the water solubility result is “poor”.
Turning to `CNC(=O)c1cc(Oc2ccc(NC(=O)Nc3ccc(Cl)c(C(F)(F)F)c3)cc2)ccn1` [Sorafenib, 4-{4-[3-(4-chloro-3-trifluoro-phenyl)-ureido]-phenoxyl}-pyridine-2-carboxylic methylamine], the “loading on DC Beads” value in data set [3] (equilibrium after approximately 46 hours) is on record as “approximately 52%”. The molecule further gave an amount loaded in data set [3] of 4.7229 mg. Further, the “% eluted” value worked out at 65.4259% in data set [4] (Fraction B, time 40 minutes); 10.6714% in data set [4] (Fraction C, time 80 minutes); 0.6479% in data set [4] (Fraction D, time 120 minutes); 0.6924% in data set [4] (Fraction E, time 160 minutes); 0.1912% in data set [4] (Fraction F, time 200 minutes); 0.1188% in data set [4] (Fraction G, time 240 minutes). Further, the “% eluted” value was found to be 0.00648% in data set [4] (Fraction H, time 280 minutes) and 4.9292% in data set [4] (setting [7]). In addition, the Cumulative elution % in data set [4] (Fraction B, time 40 minutes) is 65.4259%; in data set [4] (Fraction C, time 80 minutes), 76.0973%; in data set [4] (Fraction D, time 120 minutes), 76.7452%; in data set [4] (Fraction E, time 160 minutes), 77.4376%; in data set [4] (Fraction F, time 200 minutes), 77.6287%; in data set [4] (Fraction G, time 240 minutes) it was 77.7475%. Besides, the Cumulative elution % in data set [4] (Fraction H, time 280 minutes) was determined as 77.754%; in data set [4] (setting [7]), 82.68%. Further, the amount eluted in data set [4] (Fraction B, time 40 minutes) was determined as 3.09 mg; in data set [4] (Fraction C, time 80 minutes) it was 0.504 mg; in data set [4] (Fraction D, time 120 minutes), 0.0306 mg; in data set [4] (Fraction E, time 160 minutes) it was 0.0327 mg; in data set [4] (Fraction F, time 200 minutes), 0.00903 mg; in data set [4] (Fraction G, time 240 minutes) it was 0.00561 mg. Moreover, the amount eluted in data set [4] (Fraction H, time 280 minutes) is on record as 0.000306 mg; in data set [4] (setting [7]) it was 0.2328 mg. The “Remaining drug to be eluted” value in data set [4] turned out to be 0.8179 mg. Moreover, the “concentration released in smaller increments thereafter” value in data set [4] (after initial release) came to 0.2 µM. Moreover, the “drug remained on the beads” value in data set [4] (after the last elution time point) is on record as “Approximately 17%”. Further, the concentration released initially in data set [4] (initial release from beads) lay in the range of 4 to 20 µM. Besides, the “fraction of loaded drug eluted” value in data set [4] (over 40 minutes) is listed as “approximately 2%”. In data set [6], the “mean t½” value was 27.4 h. For the same molecule, the Cmax (usually the maximum level reached in the sampled fluid or tissue) in data set [6] (read-out: Cmax in plasma) was roughly 11.6 µM. Further, the solubility in alcohol entry in data set [5] (alcohol) is given as “slightly soluble”. Besides, in data set [5] (polyethylene glycol 400), the “solubility in polyethylene glycol 400” value was “fully soluble”. In data set [5], the water solubility entry is “mostly insoluble; also recorded: very poor”.
